Format in all cases: cell-based
The test system of one assay is RT112-FGFR3-V555M cells. The assay can be described thus: Inhibition of proliferation activity of RT112-FGFR3-V555M cells (CellTiter-Glo). The following applies: RT112-FGFR3-V555M cells, 72 hours, CTG; read-out: IC50 (nM) RT112-FGFR3-V555M. On the procedure: The present experiment used CellTiter-Glo® Luminescent Cell Viability Assay (Promega: G7573) kit, which was a homogeneous cell viability detection method and determined the cell viability of cultured cells by quantifying ATP. • ① RT112-FGFR3-V555M cells were cultured in MEM complete medium (Gibco: 51200038) (10% FBS (Gibco: 10091-148)+1% Pen Strep (Gibco: 15140122)+1% NEAA (Gibco: 11140050)) under the condition of 37°C and 5% CO2. • (2) The cells in logarithmic growth phase were harvested and counted using a […]. The trypan blue exclusion method was used to detect cell viability to ensure the cell viability was above 90%. • ③ The cell density was adjusted using MEM complete medium, and then, the cells were seeded into a 96-well cell culture plate at 90 µL/well with a total of 5000 cells. • ④ The 96-well plate with the cells was placed under the condition of 37°C and 5% CO2 to be cultured for 24 hours. • ⑤ 24 hours later, a 10-fold drug solution was prepared starting from a maximum drug concentration of 10 µM and 4-fold serially diluted into10 concentrations. Then, 10 µL of each of the serially diluted compounds was transferred to the corresponding experimental wells of a 96-well cell plate, with two replicates for each drug concentration. • ⑥ The 96-well plate with the cells that had been treated with the drugs was placed under the condition of 37°C and 5% CO2 to be further cultured for 72 hours, and then analyzed by CTG. • ⑦ The CTG reagent was melted and the cell plate was equilibrated to room temperature for 30 minutes. • ⑧ 50 µL of the CTG solution was added to each well. • ⑨ The cell plate was shaken on an orbital shaker for 5 minutes to lyse the cells. • ⑩ The cell plate was placed at room temperature for 20 minutes to stabilize the luminescence signal. The luminescence values were read to collect the data. • ⑪ The data were analyzed using XLFit excel plugin version 5.5.0.5, and fitted with non-linear S-curve regression to obtain the dose-response curves and thus calculate the IC50 values. Y = Bottom + (Top-Bottom)/((1+(IC50/X))^(∧) HillSlope [formula]
"Top" refers to the maximum response, "Bottom" refers to the minimum response, and "HillSlope" refers to the slope of the curve.
"Max" represents the average value of the cell+DMSO control, and "Min" represents the average value of the medium control+DMSO.

Assay [1] concerns Ba/F3-FGFR3-BAIAP2L1 cells. In words: Inhibition of proliferation activity of Ba/F3-FGFR3-BAIAP2L1 cells (CellTiter-Glo). The following applies: for IC50: Ba/F3-FGFR3-BAIAP2L1 cells, 72 hours, CTG, read-out: IC50 (nM) Ba/F3-FGFR3-BAIAP2L1; for Selectivity (X) FGFR1/FGFR3: ratio of IC50 Ba/F3-BCR-FGFR1 to IC50 Ba/F3-FGFR3-BAIAP2L1. In general terms: In ATP-based viability assays light output follows the ATP content of the culture.

The next assay has as its system Ba/F3-BCR-FGFR1 cells. In words: Inhibition of proliferation activity of Ba/F3-BCR-FGFR1 cells (CellTiter-Glo). To be noted: Ba/F3-BCR-FGFR1 cells, 72 hours, CTG; read-out: IC50 (nM) Ba/F3-BCR-FGFR1. A digest of the protocol: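 Ba/F3 cells carrying BCR-FGFR1 or FGFR3-BAIAP2L1 were seeded at 2000 cells/well and exposed to compound for 72 h at 37°C. Compound went up to 10 µM top concentration, 4-fold dilutions over 10 points, in duplicate. Viability was read by CellTiter-Glo luminescence (ATP), and IC50 came from a four-parameter sigmoidal fit.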

On to `CC(Oc1ccc2[nH]nc(-c3cnn(C4CN(C(=O)C(C)(C)O)C4)c3)c2c1)c1cccc2nccnc12` (centres unmarked) [Example 190, 2-hydroxy-2-methyl-1-(3-(4-(5-(1-(quinoxalin-5-yl)ethoxy)-1H-indazol-3-yl)-1H-pyrazol-1-yl)azetidin-1-yl)propan-1-one], for which the IC50 came out at 81.6 nM with RT112-FGFR3-V555M cells, 3.8 nM in assay [1] and 425 nM in the assay with Ba/F3-BCR-FGFR1 cells. In assay [1], the “Selectivity (X) FGFR1/FGFR3” value is 113 X.
Taken in the same sequence, the figures for `CC(=O)N1CC(n2cc(-c3n[nH]c4ccc(OC(C)c5cccc6nccnc56)cc34)cn2)C1` (centres unmarked) [Example 218, 1-(3-(4-(5-(1-(quinoxalin-5-yl)ethoxy)-1H-indazol-3-yl)-1H-pyrazol-1-yl)azetidin-1-yl)ethan-1-one] were 64.7 nM, 8.4 nM, 441 nM and 53 X.
Taken in the same sequence, the figures for `CC(Oc1cc2c(-c3cnn(C)c3)n[nH]c2cc1F)c1cc(Cl)cc2nccnc12` (centres unmarked) [Example 227, 7-chloro-5-(1-((6-fluoro-3-(1-methyl-1H-pyrazol-4-yl)-1H-indazol-5-yl)oxy)ethyl)qu inoxaline] were 128 nM, 3.1 nM, 390 nM and 126 X.
Turning to `CC(Oc1ccc2[nH]nc(-c3cnn(C)c3)c2c1)c1nc(C(F)F)cc2nccnc12` (centres unmarked) [Example 236, 7-(difluoromethyl)-5-(1-((3-(1-methyl-1H-pyrazol-4-yl)-1H-indazol-5-yl)oxy)ethyl)pyridino[3,4-b]pyrazine], the IC50 in the assay with RT112-FGFR3-V555M cells was found to be 38.9 nM; in assay [1], 0.9 nM; in the assay on Ba/F3-BCR-FGFR1 cells it was 161 nM. For the same compound, the “Selectivity (X) FGFR1/FGFR3” value in assay [1] was determined as 182 X.
Taken in the same sequence, the figures for `[2H]C([2H])([2H])c1cc2nccnc2c(C(C)Oc2ccc3[nH]nc(-c4cnn(C)c4)c3c2)n1` (centres unmarked) [Example 241] were 18.2 nM, 0.8 nM, 62.3 nM and 76 X.
